According to patent US11072632B2, “Inhibitors of 17β-HSD1, 17β-HSD3 and 17β-HSD10” (UNIVERSITÉ LAVAL, priority 2011, dated 2021):
Where two headings read alike, the source gives them in different places.

How the values were obtained:
[1] = target: T1, 17β-HSD3 (Homo sapiens, UniProt P37058); test: Inhibition of 17β-HSD3 in homogenated HEK-293 cells; format: biochemical
T1 construct: expressed in transfected cells; host or cells: HEK-293 (homogenate)
T1 sequence (P37058 1-310): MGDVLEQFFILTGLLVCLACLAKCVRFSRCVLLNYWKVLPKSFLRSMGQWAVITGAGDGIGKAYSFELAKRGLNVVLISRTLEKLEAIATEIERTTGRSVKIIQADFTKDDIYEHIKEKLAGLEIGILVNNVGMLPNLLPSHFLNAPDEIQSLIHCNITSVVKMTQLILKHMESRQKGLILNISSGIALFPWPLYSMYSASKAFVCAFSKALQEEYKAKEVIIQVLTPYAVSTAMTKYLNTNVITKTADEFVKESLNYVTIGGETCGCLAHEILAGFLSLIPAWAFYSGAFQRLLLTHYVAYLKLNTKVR

[2] = target: T1, 17β-HSD3; test: Inhibition of 17β-HSD3 in intact HEK-293 cells; format: cell-based; conditions: HEK293, 1 h
[3] = Table 2 (17β-HSD3), read-out: Homo (%) (0.1 μM)
[4] = Table 2 (17β-HSD3), 1 μM, read-out: Homo (%) (1 μM)
[5] = Table 2 (17β-HSD3), [14C]-Δ4-dione 50 nM into [14C]-T, read-out: Homo (%) (0.01 μM)
[6] = Table 2 (17β-HSD3), read-out: Intact cells (%) (0.1 μM)
[7] = Table 2 (17β-HSD3), read-out: Intact cells (%) (1 μM)
[8] = read-out: Homo (%) (0.1 μM), Table 2 (17β-HSD3)
[9] = read-out: Homo (%) (1 μM), Table 2 (17β-HSD3), 1 μM
[10] = read-out: Intact cells (%) (1 μM), Table 2 (17β-HSD3)

Structure (SMILES)	inhibition at 0.1 µM [1, 3] [%]	inhibition at 1 µM [1, 4] [%]	inhibition at 0.01 µM [1, 5] [%]	inhibition at 0.1 µM [2, 6] [%]	inhibition at 1 µM [2, 7] [%]	inhibition at 0.1 µM [1, 8] [%]	inhibition at 1 µM [1, 9] [%]	inhibition at 1 µM [2, 10] [%]	further results
C[C@]12CC[C@@]3(C[C@@H]1CC[C@@H]1[C@@H]2CC[C@]2(C)C(=O)CC[C@@H]12)CN(CCC(CN1CCOCC1)OC(=O)CCC1CCCC1)C(=O)O3 (some centres unmarked) [Compound 4, reference compound]	–	–	–	–	–	–	–	–	inhibition at 0.01 µM ([1]; read-out: Homo (%) (0.01 μM), Table 4): 2%; inhibition at 0.1 µM ([1]; read-out: Homo (%) (0.1 μM), Table 4): 79%; inhibition at 1 µM ([1]; read-out: Homo (%) (1.0 μM), Table 4, 1.0 μM): 94%; inhibition at 0.1 µM ([2]; read-out: Intact cells (%) (0.1 μM), Table 4): 49%
CN(Cc1ccccc1)C[C@@]1(O)CC[C@@]2(C)[C@@H](CC[C@@H]3[C@@H]2CC[C@]2(C)C(=O)CC[C@@H]32)C1 [Compound 7b, (3α,5α)-3-{[benzyl(methyl)amino]methyl}-3-hydroxyandrostan-17-one]	79	89	28	48	92	–	–	–	–
CCN(CC)C[C@@]1(O)CC[C@@]2(C)[C@@H](CC[C@@H]3[C@@H]2CC[C@]2(C)C(=O)CC[C@@H]32)C1 [Compound 7c, (3α,5α)-3-[(diethylamino)methyl]-3-hydroxyandrostan-17-one]	10	60	0	–	14	–	–	–	–
CCCCN(CCCC)C[C@@]1(O)CC[C@@]2(C)[C@@H](CC[C@@H]3[C@@H]2CC[C@]2(C)C(=O)CC[C@@H]32)C1 [Compound 7d, (3α,5α)-3-[(dibutylamino)methyl]-3-hydroxyandrostan-17-one]	70	85	13	53	90	–	–	–	–
C[C@]12CC[C@](O)(CN3CCCCC3)C[C@@H]1CC[C@@H]1[C@@H]2CC[C@]2(C)C(=O)CC[C@@H]12 [Compound 7e, (3α,5α)-3-hydroxy-3-(piperidin-1-ylmethyl)androstan-17-one]	–	–	9	–	–	19	69	23	–
C[C@]12CC[C@](O)(CN3CCC(Cc4ccccc4)CC3)C[C@@H]1CC[C@@H]1[C@@H]2CC[C@]2(C)C(=O)CC[C@@H]12 [Compound 7f, (3α,5α)-3-[(4-benzylpiperidin-1-yl)methyl]-3-hydroxyandrostan-17-one]	–	–	40	–	–	82	90	52	–
C[C@]12CC[C@](O)(CN3CCC(N4CCCCC4)CC3)C[C@@H]1CC[C@@H]1[C@@H]2CC[C@]2(C)C(=O)CC[C@@H]12 [Compound 7g, (3α,5α)-3-(1,4′-bipiperidin-1′-ylmethyl)-3-hydroxyandrostan-17-one]	4	69	0	–	20	–	–	–	–
CN1CCN(C[C@@]2(O)CC[C@@]3(C)[C@@H](CC[C@@H]4[C@@H]3CC[C@]3(C)C(=O)CC[C@@H]43)C2)CC1 [Compound 7h, (3α,5α)-3-hydroxy-3-[(4-methylpiperazin-1-yl)methyl]androstan-17-one]	0	40	0	2	–	–	–	–	–
C[C@]12CC[C@](O)(CN3CCN(c4ccccc4)CC3)C[C@@H]1CC[C@@H]1[C@@H]2CC[C@]2(C)C(=O)CC[C@@H]12 [Compound 7i, (3α,5α)-3-hydroxy-3-[(4-phenylpiperazin-1-yl)methyl]androstan-17-one]	–	–	13	–	–	78	89	68	–
C[C@]12CC[C@](O)(CN3CCN(Cc4ccc(C(F)(F)F)cc4)CC3)C[C@@H]1CC[C@@H]1[C@@H]2CC[C@]2(C)C(=O)CC[C@@H]12 [Compound 10c, (3α,5α)-3-hydroxy-3-({4-[4-(trifluoromethyl)benzyl]piperazin-1-yl}methyl)androstan-17-one]	–	–	–	–	–	–	–	–	inhibition at 0.01 µM ([1]; Table 3, read-out: Homo (%) (0.01 μM)): 14%; inhibition at 0.1 µM ([1]; Table 3, read-out: Homo (%) (0.1 μM)): 81%; inhibition at 0.1 µM ([2]; Table 3, read-out: Intact cells (%) (0.1 μM)): 33%
